Assay results: patent publication US8192962B2, “Processes for detecting toxic substances” (Daikin Industries, Ltd., priority 2001, dated 2012)

Tested on: Stress protein genes
Experiment: DNA chip mRNA expression in yeast, stress protein genes (Table 6)
Assay type: cell-based, Saccharomyces cerevisiae S288C
Method in brief: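 Untreated cultures served as reference for log-phase S288C yeast given a growth-inhibiting, non-lethal toxicant dose for 2 h at 25° C. in YPD. Gene expression was measured on a whole-genome DNA chip from Cy3/Cy5-labeled cDNA.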

Measured: The level of expressed mRNA in the presence of chemical substance/The level of expressed mRNA in the absence of chemical substance

[Cl][Pb][Cl] [(4), PbCl2]
2.0: yeast gene YGL115W | yeast gene YIR038C | yeast gene YNL160W
1.7: yeast gene YBR054W | yeast gene YCL035C | yeast gene YLL026W
1.4: yeast gene YBL093C | yeast gene YDR258C | yeast gene YDR293C | yeast gene YDR436W | yeast gene YOL161C
1.3: yeast gene YHL046C | yeast gene YIL033C | yeast gene YML007W | yeast gene YPL059W | yeast gene YPR026W
10.5: yeast gene YBR072W
0.8: yeast gene YDR098C | yeast gene YJL128C | yeast gene YJR090C | yeast gene YLL024C | yeast gene YOR027W
2.6: yeast gene YDR513W | yeast gene YLL060C
2.4: yeast gene YGR088W
2.2: yeast gene YKL161C
2.3: yeast gene YIR037W
8.6: yeast gene YCR021C
1.9: yeast gene YAL015C | yeast gene YBR044C | yeast gene YBR169C | yeast gene YHR104W | yeast gene YKL163W | yeast gene YML070W
6.2: yeast gene YLR006C
5.1: yeast gene YEL039C | yeast gene YPL223C
2.1: yeast gene YDR077W | yeast gene YER103W
3.8: yeast gene YPR005C
2.9: yeast gene YHR030C | yeast gene YOR208W
11.0: yeast gene YFL014W
0.5: yeast gene YHL028W
1.1: yeast gene YEL030W | yeast gene YGL181W | yeast gene YJL159W | yeast gene YMR021C | yeast gene YNL064C | yeast gene YOR008C | yeast gene YPL106C | yeast gene YPL194W
1.8: yeast gene YCR083W | yeast gene YDR155C | yeast gene YER057C
0.6: yeast gene YIL011W | yeast gene YOL064C | yeast gene YOR010C
0.7: yeast gene YKL210W | yeast gene YOR009W
1.5: yeast gene YDL022W | yeast gene YDL025C | yeast gene YDR033W | yeast gene YFR052W | yeast gene YJL158C
1.2: yeast gene YBR126C | yeast gene YFL020C | yeast gene YKR053C | yeast gene YLL039C
0.9: yeast gene YAL005C | yeast gene YBR067C | yeast gene YER125W | yeast gene YFL016C | yeast gene YHR057C | yeast gene YKL164C | yeast gene YLR109W | yeast gene YMR173W | yeast gene YMR186W | yeast gene YPL240C
1.0: yeast gene YER042W | yeast gene YGL073W | yeast gene YNL241C | yeast gene YNR076W | yeast gene YPL140C
1.6: yeast gene YBL075C | yeast gene YDR519W | yeast gene YJL165C | yeast gene YLR259C
